How the values were obtained:
[1] = tested on: cyclamen (cultivar: Dressy Scarlet) seedling; assay: Growth of root tubers at cut root ends of seedlings in solid media; format: in vivo
Protocol: A cyclamen (cultivar: Dressy Scarlet) seed was immersed in an ethyl alcohol aqueous solution having an ethyl alcohol concentration of 70 wt % for 10 seconds and in a sodium hypochlorite solution having an effective chlorine concentration of 1 wt % for 10 minutes to sterilize the surface of the seed. Thereafter, this seed was washed in sterilized water 3 times to remove the sodium hypochlorite from the surface of the seed. This was sown in an MS solid medium containing 30 g/l of sucrose and 6 g/l of agar under a germ-free condition and cultured at a temperature of 20° C. under weak light for 30 days to be germinated and rooted.
The end portions of the roots of the above germinated and rooted cyclamen seedling were cut off with a scalpel, and the seedling was planted in the following solid media. As the media, a large number of experimental plots were prepared by adding NAA and BA as phytohormones to the ⅓ MS medium in concentrations shown in Tables 1 to 3 and further adding 30 to 90 g/l of sucrose. 6 g/l of agar was added to all of the media which were then sterilized in an autoclave to prepare media having a pH of 7.0. 10 ml of each of the solid media was placed in a 50 ml culture test tube. The stationary culture of the seedling planted in each of the media was carried out at 20° C. under weak light for a certain number of days to grow root tubers at the end portions of its roots.

[2] = tested on: explants from leaves of cyclamen (species: Flamenco); assay: Culture of explants from leaves (comparative); format: cell-based; details: NAA 0.05 mg/l, 20 explants planted, 30 days
Protocol: For comparison, the explants from leaves and petioles of cyclamen (species: Flamenco) were cultured for 30 days by changing the contents of BA and sucrose in a basal medium prepared by adding 0.05 mg/l of NAA and 6 g/l of agar to the ⅓ MS medium and having a pH of 7.0. In all the cases, the root tubers were hardly enlarged by culture and rarely regenerated and accordingly, a clonal plant could not be obtained with high reproducibility.

[3] = sucrose 50 g/l, BA 10.0 mg/l, NAA 0.05 mg/l, 30-th day
[4] = sucrose 70 g/l, BA 0.1 mg/l, NAA 0.01 mg/l, 30-th day
[5] = sucrose 70 g/l, BA 0.1 mg/l, NAA 0.05 mg/l, 30-th day
[6] = sucrose 70 g/l, BA 1.0 mg/l, NAA 0.00 mg/l, 30-th day
[7] = sucrose 70 g/l, BA 1.0 mg/l, NAA 0.01 mg/l, 30-th day
[8] = sucrose 70 g/l, BA 1.0 mg/l, NAA 0.05 mg/l, 30-th day
[9] = sucrose 70 g/l, BA 10.0 mg/l, NAA 0.00 mg/l, 30-th day
[10] = sucrose 70 g/l, BA 10.0 mg/l, NAA 0.01 mg/l, 30-th day
[11] = sucrose 70 g/l, BA 10.0 mg/l, NAA 0.05 mg/l, 30-th day

For c1ccc(CNc2ncnc3[nH]cnc23)cc1 [BA, benzylaminopurine], the “Number of large root tubers (diameter of 1 mm or more)” value (from here on “Number of large root tubers”) [1, 3] was 4, the “Total number of root tubers” value [1, 3] was 8 and the “Number of large root tubers” value [1, 4] was 4. For the same molecule, the “Total number of root tubers” value [1, 4] was 8, the “Average number of root tubers (per a seedling)” value [1, 5] was 4.4 and the “Number of large root tubers” value [1, 5] was 12. For the same molecule, the “Total number of root tubers” value [1, 5] was 14, the “Average number of root tubers (per a seedling)” value ([1]; sucrose 70 g/l, BA 0.1 mg/l, NAA 0.05 mg/l, 50-th day) was 4.4 and the “Number of large root tubers” value [1, 6] was 11. The “Total number of root tubers” value [1, 6] was 16, the “Number of large root tubers” value [1, 7] was 11 and the “Total number of root tubers” value [1, 7] was 19. For the same molecule, the “Average number of root tubers (per a seedling)” value [1, 8] was 0.8, the “Number of large root tubers” value [1, 8] was 9 and the “Total number of root tubers” value [1, 8] was 11. The “Average number of root tubers (per a seedling)” value ([1]; sucrose 70 g/l, BA 1.0 mg/l, NAA 0.05 mg/l, 50-th day) was 0.8, the “Average number of root tubers (per a seedling)” value ([1]; sucrose 70 g/l, BA 2.0 mg/l, NAA 0.05 mg/l, 30-th day) was 3.2 and the “Average number of root tubers (per a seedling)” value ([1]; sucrose 70 g/l, BA 2.0 mg/l, NAA 0.05 mg/l, 50-th day) was 3.2. For the same molecule, the “Average number of root tubers (per a seedling)” value ([1]; sucrose 70 g/l, BA 5.0 mg/l, NAA 0.05 mg/l, 30-th day) was 1.0, the “Average number of root tubers (per a seedling)” value ([1]; sucrose 70 g/l, BA 5.0 mg/l, NAA 0.05 mg/l, 50-th day) was 1.0 and the “Number of large root tubers” value [1, 9] was 3. The “Total number of root tubers” value [1, 9] was 3, the “Number of large root tubers” value [1, 10] was 3 and the “Total number of root tubers” value [1, 10] was 3. The “Number of large root tubers” value [1, 11] was 8, the “Total number of root tubers” value [1, 11] was 14 and the “Average number of root tubers (per a seedling)” value ([1]; sucrose 90 g/l, BA 0.1 mg/l, NAA 0.05 mg/l, 30-th day) was 2.4. The “Average number of root tubers (per a seedling)” value ([1]; sucrose 90 g/l, BA 0.1 mg/l, NAA 0.05 mg/l, 50-th day) was 2.4, the “Average number of root tubers (per a seedling)” value ([1]; sucrose 90 g/l, BA 1.0 mg/l, NAA 0.05 mg/l, 30-th day) was 1.6 and the “Average number of root tubers (per a seedling)” value ([1]; sucrose 90 g/l, BA 1.0 mg/l, NAA 0.05 mg/l, 50-th day) was 1.6. The “Average number of root tubers (per a seedling)” value ([1]; sucrose 90 g/l, BA 2.0 mg/l, NAA 0.05 mg/l, 30-th day) was 1.0, the “Average number of root tubers (per a seedling)” value ([1]; sucrose 90 g/l, BA 2.0 mg/l, NAA 0.05 mg/l, 50-th day) was 1.0 and the “Average number of root tubers (per a seedling)” value ([1]; sucrose 90 g/l, BA 5.0 mg/l, NAA 0.05 mg/l, 30-th day) was 0.8. The “Average number of root tubers (per a seedling)” value ([1]; sucrose 90 g/l, BA 5.0 mg/l, NAA 0.05 mg/l, 50-th day) was 0.8, the “Number of enlarged explants” value ([2]; BA 0.05 mg/l) was 0 and the “Number of regenerate explants” value ([2]; BA 0.05 mg/l) was 0. The “Number of enlarged explants” value ([2]; BA 0.05 mg/l, sucrose 30 g/m) was 1, the “Number of regenerate explants” value ([2]; BA 0.05 mg/l, sucrose 30 g/m) was 0 and the “Number of enlarged explants” value ([2]; BA 0.05 mg/l, sucrose 70 g/m) was 0. For the same molecule, the “Number of regenerate explants” value ([2]; BA 0.05 mg/l, sucrose 70 g/m) was 0, the “Number of enlarged explants” value ([2]; BA 0.05 mg/l, sucrose 90 g/m) was 0 and the “Number of regenerate explants” value ([2]; BA 0.05 mg/l, sucrose 90 g/m) was 0. The “Number of enlarged explants” value ([2]; BA 0.1 mg/l) was 1, the “Number of regenerate explants” value ([2]; BA 0.1 mg/l) was 0 and the “Number of enlarged explants” value ([2]; BA 0.1 mg/l, sucrose 30 g/m) was 2. The “Number of regenerate explants” value ([2]; BA 0.1 mg/l, sucrose 30 g/m) was 1, the “Number of enlarged explants” value ([2]; BA 0.1 mg/l, sucrose 70 g/m) was 0 and the “Number of regenerate explants” value ([2]; BA 0.1 mg/l, sucrose 70 g/m) was 0. For the same molecule, the “Number of enlarged explants” value ([2]; BA 0.1 mg/l, sucrose 90 g/m) was 0, the “Number of regenerate explants” value ([2]; BA 0.1 mg/l, sucrose 90 g/m) was 0 and the “Number of enlarged explants” value ([2]; BA 0.5 mg/l) was 4. For the same molecule, the “Number of regenerate explants” value ([2]; BA 0.5 mg/l) was 1, the “Number of enlarged explants” value ([2]; BA 0.5 mg/l, sucrose 30 g/m) was 2 and the “Number of regenerate explants” value ([2]; BA 0.5 mg/l, sucrose 30 g/m) was 2. The “Number of enlarged explants” value ([2]; BA 0.5 mg/l, sucrose 70 g/m) was 1, the “Number of regenerate explants” value ([2]; BA 0.5 mg/l, sucrose 70 g/m) was 0 and the “Number of enlarged explants” value ([2]; BA 0.5 mg/l, sucrose 90 g/m) was 2. For the same molecule, the “Number of regenerate explants” value ([2]; BA 0.5 mg/l, sucrose 90 g/m) was 0, the “Number of enlarged explants” value ([2]; BA 1 mg/l) was 4 and the “Number of regenerate explants” value ([2]; BA 1 mg/l) was 2. For the same molecule, the “Number of enlarged explants” value ([2]; BA 1 mg/l, sucrose 30 g/m) was 6, the “Number of regenerate explants” value ([2]; BA 1 mg/l, sucrose 30 g/m) was 3 and the “Number of enlarged explants” value ([2]; BA 1 mg/l, sucrose 70 g/m) was 3. The “Number of regenerate explants” value ([2]; BA 1 mg/l, sucrose 70 g/m) was 1, the “Number of enlarged explants” value ([2]; BA 1 mg/l, sucrose 90 g/m) was 5 and the “Number of regenerate explants” value ([2]; BA 1 mg/l, sucrose 90 g/m) was 1.
